Data as given in PubChem BioAssay (NCI).
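Tested at 5 concentrations; 48 h exposure; 96-well plates; endpoints linearly interpolated, else capped at highest concentration. TGI is the concentration that stops growth completely.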

Tests used:
Assay in all cases: NCI-60 cell line screen, 48 h
[1] = system: SNB-78 CNS
[2] = system: OVCAR-4 ovarian
[3] = system: MOLT-4 leukemia
[4] = system: A549 NSCLC
[5] = system: LOX IMVI melanoma
[6] = system: HL-60(TB) leukemia
[7] = system: SNB-75 CNS
[8] = system: M14 melanoma
[9] = system: XF 498 CNS
[10] = system: U251 CNS
[11] = system: A498 renal
[12] = system: UACC-62 melanoma
[13] = system: OVCAR-8 ovarian
[14] = system: COLO 205 colon
[15] = system: K-562 leukemia
[16] = system: DMS 114 small cell lung
[17] = system: HOP-92 NSCLC
[18] = system: SK-MEL-2 melanoma
[19] = system: LXFL 529 NSCLC
[20] = system: CCRF-CEM leukemia
[21] = system: M19-MEL melanoma
[22] = system: NCI-H226 lung
[23] = system: HOP-18 NSCLC
[24] = system: OVCAR-3 ovarian
[25] = system: SK-MEL-5 melanoma
[26] = system: RPMI-8226 leukemia
[27] = system: HCT-116 colon
[28] = system: HOP-62 NSCLC
[29] = system: UACC-257 melanoma
[30] = system: EKVX NSCLC
[31] = system: UO-31 renal
[32] = system: NCI-H23 lung
[33] = system: SW-620 colon
[34] = system: SK-OV-3 ovarian
[35] = system: SF-539 CNS
[36] = system: NCI-H522 lung
[37] = system: 786-0 renal
[38] = system: MALME-3M melanoma
[39] = system: HCT-15 colon
[40] = system: DMS 273 small cell lung
[41] = system: SF-295 CNS
[42] = system: SF-268 CNS
[43] = system: SNB-19 CNS
[44] = system: DLD-1 colon
[45] = system: SR leukemia
[46] = system: TK-10 renal
[47] = system: IGROV1 ovarian
[48] = system: HT29 colon
[49] = system: ACHN renal
[50] = system: OVCAR-5 ovarian
[51] = system: KM12 colon
[52] = system: HCC-2998 colon
[53] = system: NCI-H460 lung
[54] = system: SK-MEL-28 melanoma
[55] = system: KM20L2 colon
[56] = system: SN12C renal
[57] = system: RXF 393 renal

CN1C(=Nc2ccccc2)SC1=Nc1ccccc1 showed a TGI [1] greater than 100 µM, a TGI [2] greater than 100 µM and a TGI [3] greater than 100 µM. It also gave a TGI [4] greater than 100 µM, a TGI [5] greater than 100 µM and a TGI [6] greater than 100 µM. It also gave a TGI [7] of 40.3 µM, a TGI [8] greater than 100 µM and a TGI [9] of 73.3 µM. The TGI [10] was greater than 100 µM, the TGI [11] was greater than 100 µM and the TGI [12] was greater than 100 µM. The TGI [13] was greater than 100 µM, the TGI [14] was greater than 100 µM and the TGI [15] was greater than 100 µM. The TGI [16] was greater than 100 µM, the TGI [17] was 58.5 µM and the TGI [18] was greater than 100 µM. It also gave a TGI [19] greater than 100 µM, a TGI [20] greater than 100 µM and a TGI [21] of 65.2 µM. The TGI [22] was greater than 100 µM, the TGI [23] was greater than 100 µM and the TGI [24] was greater than 100 µM. It also gave a TGI [25] greater than 100 µM, a TGI [26] greater than 100 µM and a TGI [27] greater than 100 µM. The TGI [28] was greater than 100 µM, the TGI [29] was greater than 100 µM and the TGI [30] was greater than 100 µM. It also gave a TGI [31] greater than 100 µM, a TGI [32] greater than 100 µM and a TGI [33] greater than 100 µM. It also gave a TGI [34] greater than 100 µM, a TGI [35] greater than 100 µM and a TGI [36] of 41.3 µM. It also gave a TGI [37] greater than 100 µM, a TGI [38] of 94.3 µM and a TGI [39] greater than 100 µM. For the same compound, the TGI [40] was greater than 100 µM, the TGI [41] was greater than 100 µM and the TGI [42] was greater than 100 µM. It also gave a TGI [43] greater than 100 µM, a TGI [44] greater than 100 µM and a TGI [45] greater than 100 µM. It also gave a TGI [46] greater than 100 µM, a TGI [47] greater than 100 µM and a TGI [48] greater than 100 µM. It also gave a TGI [49] greater than 100 µM, a TGI [50] greater than 100 µM and a TGI [51] greater than 100 µM. It also gave a TGI [52] greater than 100 µM, a TGI [53] greater than 100 µM and a TGI [54] greater than 100 µM.

Clc1ccc(C2SCc3nc4ccccc4n32)c(Cl)c1 (stereo not drawn) was tested, and the TGI [3] was 34.6 µM, the TGI [4] was 28.8 µM and the TGI [5] was 29.4 µM. The TGI [6] was 28.3 µM, the TGI [7] was 34.8 µM and the TGI [8] was 28 µM. The TGI [9] was 33.6 µM, the TGI [10] was 32 µM and the TGI [11] was 28.4 µM. The TGI [12] was 32 µM, the TGI [13] was 32.1 µM and the TGI [14] was 31.5 µM. It also gave a TGI [15] of 39.6 µM, a TGI [16] of 22.1 µM and a TGI [17] of 11 µM. For the same compound, the TGI [18] was 33.8 µM, the TGI [19] was 24.5 µM and the TGI [20] was 40.8 µM. It also gave a TGI [21] of 28.9 µM, a TGI [22] of 30.4 µM and a TGI [23] of 34.4 µM. The TGI [55] was 36.3 µM, the TGI [24] was 27.3 µM and the TGI [25] was 20.4 µM. For the same compound, the TGI [26] was 41.1 µM, the TGI [27] was 27.6 µM and the TGI [28] was 27.5 µM. The TGI [29] was 22.2 µM, the TGI [30] was 24.9 µM and the TGI [31] was 24.9 µM. It also gave a TGI [32] of 25.1 µM, a TGI [56] of 28.1 µM and a TGI [33] of 22 µM. For the same compound, the TGI [34] was 42.1 µM, the TGI [35] was 31.4 µM and the TGI [36] was 29.9 µM. For the same compound, the TGI [37] was 31.9 µM, the TGI [38] was 32.5 µM and the TGI [39] was 37.5 µM. The TGI [41] was 21.1 µM, the TGI [42] was 31.1 µM and the TGI [43] was 33 µM. It also gave a TGI [44] of 30.3 µM, a TGI [45] of 39.1 µM and a TGI [46] of 28.4 µM. It also gave a TGI [47] of 31.5 µM, a TGI [48] of 30.4 µM and a TGI [49] of 28.7 µM. It also gave a TGI [57] of 29.6 µM, a TGI [50] of 30.3 µM and a TGI [51] of 29.4 µM. It also gave a TGI [52] of 28.8 µM, a TGI [53] of 34.7 µM and a TGI [54] of 31.6 µM.
